Experimental data as given in BindingDB's records for doi:10.1006/abio.2001.5466 (Kosan Biosciences, 2002).
Where “and” joins values, the source holds several entries; their conditions need not be identical. Equal entries are not always repeated.

Target: T1, Promotilin (Homo sapiens, UniProt P12872)
T1 sequence (P12872 whole entry): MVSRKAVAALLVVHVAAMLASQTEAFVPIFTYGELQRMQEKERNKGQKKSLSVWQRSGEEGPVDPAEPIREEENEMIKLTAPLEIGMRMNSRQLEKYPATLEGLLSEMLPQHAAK

Row | Ki | SMILES
1 | 19.1 nM and 47.9 nM | CC[C@H]1OC(=O)[C@H](C)[C@@H](O[C@H]2C[C@@](C)(OC)[C@@H](O)[C@H](C)O2)[C@H](C)[C@@H](O[C@@H]2O[C@H](C)C[C@H](N(C)C)[C@H]2O)[C@@]2(C)CC(C)=C(O2)[C@H](C)[C@@H](O)[C@]1(C)O [Erythromycin-A enol ether]
2 | 1290 nM | CC[C@H]1OC(=O)[C@H](C)[C@@H](O[C@H]2C[C@@](C)(OC)[C@@H](O)[C@H](C)O2)[C@H](C)[C@@H](O[C@H]2O[C@@H](C)C[C@@H](N(C)C)[C@@H]2O)[C@](C)(O)C[C@@H](C)C(=O)[C@H](C)[C@@H](O)[C@]1(C)O [(3R,4S,5S,6R,7R,9R,11R,12R,13S,14R)-6-{[(2R,3S,4R,6S)-4-(dimethylamino)-3-hydroxy-6-methyloxan-2-yl]oxy}-14-ethyl-7,12,13-trihydroxy-4-{[(2R,4R,5S,6S)-5-hydroxy-4-methoxy-4,6-dimethyloxan-2-yl]oxy}-3,5,7,9,11,13-hexamethyl-1-oxacyclotetradecane-2,10-dione]
3 | 5.25 nM | CC[C@H](C)[C@H](NC(=O)[C@@H]1CCCN1C(=O)[C@@H](NC(=O)[C@@H](N)Cc1ccccc1)C(C)C)C(=O)N[C@@H](Cc1ccccc1)C(=O)N[C@H](C(=O)N[C@@H](Cc1ccc(O)cc1)C(=O)NCC(=O)N[C@@H](CCC(=O)O)C(=O)N[C@@H](CC(C)C)C(=O)N[C@@H](CCC(N)=O)C(=O)N[C@@H](CCCNC(=N)N)C(=O)N[C@@H](CCSC)C(=O)N[C@@H](CCC(N)=O)C(=O)N[C@@H](CCC(=O)O)C(=O)N[C@@H](CCCCN)C(=O)N[C@@H](CCC(=O)O)C(=O)N[C@@H](CCCNC(=N)N)C(=O)N[C@@H](CC(N)=O)C(=O)N[C@@H](CCCCN)C(=O)NCC(=O)N[C@@H](CCC(N)=O)C(=O)O)[C@@H](C)O [CAS_52906-92-0]
